What was measured:
[1] = system: HDACs (HeLa cell nuclear extracts); assay: HDAC enzymatic activity, Biomol Color de Lys system; assay type: biochemical
Description: (e) An In Vitro Assay which Determines the Ability of a Test Compound to Inhibit HDAC Enzymatic Activity.
HDAC inhibitory activity was assessed using the Biomol Color de Lys system (AK-500, Biomol, Plymouth Meeting, Pa.). Briefly, HeLa cell nuclear extracts were used as a source of HDACs. Different concentrations of test compounds were serially diluted in dimethylsulphoxide (DMSO) and added to HeLa cell nuclear extracts in the presence of a colorimetric artificial substrate. Final assay condition contained 50 mM Tris/Cl, pH 8.0, 137 mM NaCl, 2.7 mM KCl and 1 mM MgCl2. Reactions were carried in room temperature (25° C.) for 1 hour before addition of developer for termination. Relative enzyme activity was measured in the WALLAC Victor II 1420 microplate reader as floorescence intensity (excitation: 350-380 nm; emission: 440-460 nm). Data were analyzed using GraphPad Prism (v4.0a) with a sigmoidal dose response curve fitting for IC50 calculation.

melting point | IC50 [1] [nM] | Structure (SMILES)
188 to 192 °C | < 100 | CN(Cc1cc2nc(-c3cccc(SCCO)c3)nc(N3CCOCC3)c2s1)c1ncc(C(=O)NO)cn1 [Compound 290, N-Hydroxy-2-(((2-(3-(2-hydroxyethylthio)phenyl)-4-morpholinothieno[3,2-d]pyrimidin-6-yl)methyl)(methyl)amino)pyrimidine-5-carboxamide]
173 to 176 °C | < 100 | CN(Cc1cc2nc(-c3ccccc3CO)nc(N3CCOCC3)c2s1)c1ncc(C(=O)NO)cn1 [Compound 141, N-hydroxy-2-(((2-(2-(hydroxymethyl)phenyl)-4-morpholinothieno[3,2-d]pyrimidin-6-yl)methyl)(methyl)amino)pyrimidine-5-carboxamide]
240 to 242 °C | 1000 to 10000 | CC(C)(C)CN(Cc1cc2nc(-c3cccc4[nH]ncc34)nc(N3CCOCC3)c2s1)c1ncc(C(=O)NO)cn1 [Compound 83, 2-(((2-(1H-indazol-4-yl)-4-morpholinothieno[3,2-d]pyrimidin-6-yl)methyl)(neopentyl)amino)-N-hydroxypyrimidine-5-carboxamide]
247 °C (dec.) |  | COc1ccc(-c2nc(N3CCOCC3)c3sc(CN(C)c4ncc(C(=O)NO)cn4)cc3n2)cc1 [Compound 131, N-hydroxy-2-(((2-(4-methoxyphenyl)-4-morpholinothieno[3,2-d]pyrimidin-6-yl)methyl)(methyl)amino)pyrimidine-5-carboxamide]
178 to 180 °C |  | CC(=O)NCc1ccc(-c2nc(N3CCOCC3)c3sc(CN(C)c4ncc(C(=O)NO)cn4)cc3n2)cc1 [Compound 136, 2-(((2-(4-(acetamidomethyl)phenyl)-4-morpholinothieno[3,2-d]pyrimidin-6-yl)methyl)(methyl)amino)-N-hydroxypyrimidine-5-carboxamide]
 | 100 to 1000 | Cn1c(CNCc2cc3nc(-c4ccc(N)cc4)nc(N4CCOCC4)c3s2)nc2cc(/C=C/C(=O)NO)ccc21 [Compound 326]
 | < 100 | CN(Cc1cc2nc(-c3ccc4c(c3)NC(=O)CO4)nc(N3CCOCC3)c2s1)c1ncc(C(=O)NO)cn1 [Compound 183]
 | < 100 | Nc1ccc(-c2nc(N3CCOCC3)c3sc(CN(CCO)c4ncc(C(=O)NO)cn4)cc3n2)cn1 [Compound 235]
 | 100 to 1000 | CS(=O)(=O)N1CCN(Cc2cc3nc(-c4cccc5[nH]ncc45)nc(NCCCCC(=O)NO)c3s2)CC1 [Compound 34]
 | < 100 | Cn1cc(-c2nc(N3CCOCC3)c3sc(CN(CCO)c4ncc(C(=O)NO)cn4)cc3n2)cn1 [Compound 313]
 | < 100 | CC1CN(c2nc(-c3cccc4[nH]ncc34)nc3cc(CN(C)c4ncc(C(=O)NO)cn4)sc23)CC(C)O1 (stereo not shown) [Compound 65]
 | < 100 | CN(Cc1cc2nc(-c3cccc(C(C)(C)O)c3)nc(N3CCOCC3)c2s1)c1ncc(C(=O)NO)cn1 [Compound 302]
125 to 127 °C |  | O=C(CCCCN1CCN(Cc2cc3nc(-c4cccc5[nH]ncc45)nc(N4CCOCC4)c3s2)CC1)NO [Compound 11, 5-(4-((2-(1H-indazol-4-yl)-4-morpholinothieno[3,2-d]pyrimidin-6-yl)methyl)piperazin-1-yl)-N-hydroxypentanamide]
 | < 100 | O=C(CCCCCCNc1cc2nc(-c3cccc4[nH]ncc34)nc(N3CCOCC3)c2s1)NO [Compound 20]
 | 100 to 1000 | Nc1ccc(-c2nc(N3CCOCC3)c3sc(CNCc4ccc(/C=C/C(=O)NO)cc4)cc3n2)cc1 [Compound 210]
 | < 100 | CN(Cc1cc2nc(-c3cccc4[nH]c(=S)[nH]c34)nc(N3CCOCC3)c2s1)c1ncc(C(=O)NO)cn1 [Compound 315]
 | < 100 | CN(Cc1cc2nc(-c3cnc(OCc4ccccc4)nc3)nc(N3CCOCC3)c2s1)c1ncc(C(=O)NO)cn1 [Compound 266]
 | 100 to 1000 | CCCc1nc2cc(/C=C/C(=O)NO)ccc2n1CCNCc1cc2nc(-c3ccc(N)cc3)nc(N3CCOCC3)c2s1 [Compound 325]
 | < 100 | O=C(/C=C/c1cccc(S(=O)(=O)Nc2cc3nc(-c4cccc5[nH]ncc45)nc(N4CCOCC4)c3s2)c1)NO [Compound 216]
 | < 100 | CN(Cc1cc2nc(-c3ccc(N)cc3F)nc(N3CCOCC3)c2s1)c1ncc(C(=O)NO)cn1 [Compound 283, 2-{[2-(4-Amino-2-fluoro-phenyl)-4-morpholin-4-yl-thieno[3,2-d]pyrimidin-6-ylmethyl]-methyl-amino}-pyrimidine-5-carboxylic acid hydroxyamide]
 | < 100 | O=C(CCCCNc1cc2nc(-c3cc(O)ccc3F)nc(N3CCOCC3)c2s1)NO [Compound 231]
 | < 100 | O=C(CCCCCNc1cc2nc(-c3cccc4[nH]ncc34)nc(N3CCOCC3)c2s1)NO [Compound 19]
 | < 100 | CN(Cc1cc2nc(-c3ccc4c(c3)OCCN4)nc(N3CCOCC3)c2s1)c1ncc(C(=O)NO)cn1 [Compound 191]
 | 100 to 1000 | O=C(O)CN(Cc1cc2nc(-c3cccc4[nH]ncc34)nc(N3CCOCC3)c2s1)c1ncc(C(=O)NO)cn1 [Compound 88]
 | 1000 to 10000 | Cn1cc(CNc2cc3nc(-c4cccc5[nH]ncc45)nc(N4CCOCC4)c3s2)c2cc(C(=O)NO)ccc21 [Compound 106]
 | < 100 | CC(C)C(=O)Nc1ccc(-c2nc(N3CCOCC3)c3sc(CN(C)c4ncc(C(=O)NO)cn4)cc3n2)cc1 [Compound 286]

melting point | IC50 [1] [nM] | Structure (SMILES)
 | 100 to 1000 | CNc1ccc(-c2nc(N3CCOCC3)c3sc(CNCc4nc5cc(/C=C/C(=O)NO)ccc5n4C)cc3n2)cn1 [Compound 328]
 | < 100 | CC(=O)N1CCN(c2nc(-c3cccc4[nH]ncc34)nc3cc(CN(C)c4ncc(C(=O)NO)cn4)sc23)CC1 [Compound 62]
 | < 100 | CS(=O)(=O)N1CCN(Cc2cc3nc(-c4cccc5[nH]ncc45)nc(NCCCCCCC(=O)NO)c3s2)CC1 [Compound 36]
 | < 100 | O=C(/C=C/c1ccc(S(=O)(=O)Nc2cc3nc(-c4cccc5[nH]ncc45)nc(N4CCOCC4)c3s2)cc1)NO [Compound 50]
 | < 100 | CC1COCC(C)N1c1nc(-c2cccc3[nH]ncc23)nc2cc(CN(C)c3ncc(C(=O)NO)cn3)sc12 (stereo not shown) [Compound 66]
 | < 100 | C/C(=N/O)c1ccc(F)c(-c2nc(N3CCOCC3)c3sc(CN(C)c4ncc(C(=O)NO)cn4)cc3n2)c1 [Compound 298]
 | < 100 | CC(C)OC(=O)Nc1ccc(-c2nc(N3CCOCC3)c3sc(CN(C)c4ncc(C(=O)NO)cn4)cc3n2)cc1 [Compound 287]
 | < 100 | CN(Cc1cc2nc(-c3ccc4c(c3)CCN4)nc(N3CCOCC3)c2s1)c1ncc(C(=O)NO)cn1 [Compound 193]
 | 100 to 1000 | Nc1ccc(-c2nc(N3CCOCC3)c3sc(S(=O)(=O)NCC4CCN(c5ncc(C(=O)NO)cn5)CC4)cc3n2)cc1 [Compound 309]
 | < 100 | COc1ncc(-c2nc(N3CCOCC3)c3sc(NS(=O)(=O)c4ccc(/C=C/C(=O)NO)cc4)cc3n2)cn1 [Compound 219]
 | < 100 | COc1ccc(-c2nc(N3CCOCC3)c3sc(CN(CCO)c4ncc(C(=O)NO)cn4)cc3n2)cn1 [Compound 265]
 | < 100 | CNc1ccc(-c2nc(N3CCOCC3)c3sc(NS(=O)(=O)c4cccc(/C=C/C(=O)NO)c4)cc3n2)cn1 [Compound 224]
 | < 100 | COc1ccc(-c2nc(N3CCOCC3)c3sc(C(C)N(C)c4ncc(C(=O)NO)cn4)cc3n2)cn1 (stereo not shown) [Compound 247, N-hydroxy-2-((1-(2-(6-methoxypyridin-3-yl)-4-morpholinothieno[3,2-d]pyrimidin-6-yl)ethyl)(methyl)amino)pyrimidine-5-carboxamide]
 | < 100 | CS(=O)(=O)N1CCN(Cc2cc3nc(-c4cccc5[nH]ncc45)nc(NCCCCCC(=O)NO)c3s2)CC1 [Compound 35]
 | 100 to 1000 | CN(CC1CCN(c2ncc(C(=O)NO)cn2)CC1)c1cc2nc(-c3cccc4[nH]ncc34)nc(N3CCOCC3)c2s1 [Compound 49]
 | < 100 | O=C(NO)c1cnc(NCc2cc3cc(-c4cccc5[nH]ncc45)nc(N4CCOCC4)c3s2)nc1 [Compound 73]
 | < 100 | COC(=O)CN(Cc1cc2nc(-c3cccc4[nH]ncc34)nc(N3CCOCC3)c2s1)c1ncc(C(=O)NO)cn1 [Compound 89]
 | > 10000 | O=C(NO)c1cc2nc(-c3cccc4[nH]ncc34)nc(N3CCOCC3)c2s1 [Compound 45]
 | < 100 | CN(Cc1cc2nc(-c3ccc(N)cc3)nc(N3CCOCC3)c2s1)c1ccc(C(=O)NO)cc1 [Compound 206]
 | < 100 | O=C(NO)c1cnc(N2CCC(CNc3cc4nc(-c5cccc6[nH]ncc56)nc(N5CCOCC5)c4s3)CC2)nc1 [Compound 48]
 | < 100 | CN(Cc1cc2nc(-c3cccc4c3CNC4=O)nc(N3CCOCC3)c2s1)c1ncc(C(=O)NO)cn1 [Compound 181]
 | 100 to 1000 | O=C(NO)c1ccc2c(ccn2Cc2cc3nc(-c4cccc5[nH]ncc45)nc(N4CCOCC4)c3s2)c1 [Compound 105]
 | < 100 | COc1ccc(Nc2nc(-c3cccc4[nH]ncc34)nc3cc(CN(C)c4ncc(C(=O)NO)cn4)sc23)cc1 [Compound 165]
 | 100 to 1000 | CN(Cc1cc2nc(-c3ccc(N)cc3)nc(N3CCOCC3)c2s1)Cc1nc2cc(/C=C/C(=O)NO)ccc2n1C [Compound 327]
 | 100 to 1000 | O=C(/C=C/c1ccc(CNCc2cc3nc(-c4cccc5[nH]ncc45)nc(N4CCOCC4)c3s2)cc1)NO [Compound 204]
 | < 100 | Nc1ccc(-c2nc(N3CCOCC3)c3sc(CN(CCO)c4ncc(C(=O)NO)cn4)cc3n2)cc1 [Compound 274]
